Measurements from patent US20260365682A1, “MODULATORS OF TNF-ALPHA ACTIVITY” (Forward Therapeutics, Inc., priority 2022, published 2026).

Target: T1, TNF-α (Homo sapiens, UniProt P01375)
T1 construct: purchased R&D 210-TA-020/CF
Assay: TNF-α Induced HEK Blue Cellular Assay (secreted alkaline phosphatase expression, QUANTI-Blue)
Format: cell-based
Conditions: HEK Blue TNFα reporter cells; TNF-α 100 μg/ml; 24 hrs at 37° C.; inhibition of secreted alkaline phosphatase; read-out: IC50 value
Method: TNF-α Induced HEK Blue Cellular Assay
Test articles were diluted in DMSO and serially diluted into 384 well assay plate (Corning 3765), at final concentrations ranging from […] to 0.5 nM. HEK Blue™ TNFα reporter cells were added at a final density of 10,000 cell per well in assay media [DMEM (Gibco, cat #21063-029), 10% fetal bovine serum (ExcelBio, cat #FND500), 1% Penicillin-Streptomycin (Solarbio, cat #P1400-100]. TNF-α (R&D 210-TA-020/CF) was then added to the assay plate at a final concentration of […]. This plate was then incubated for 24 hrs at 37° C. and 5% CO2. Secreted alkaline phosphatase expression was then measured using QUANTI-Blue™ (Invivogen), according to manufacturer instructions and read on an Envision microplate reader at 620 nm.
Inhibition data for test compound over a range of concentration was plotted as percentage inhibition of the test compound (100%=maximum inhibition). IC50 values were determined after correcting for background [(sample read-mean of low control)/(mean of high control-mean of low control)] whereby the low control is DMSO without stimulation and high control is DMSO with stimulation. The IC50 is defined as the concentration of test compound which produces 50% inhibition and was quantified using the 4 parameter logistic equation to fit the data.

T1 sequence (P01375 77-233 limits assumed): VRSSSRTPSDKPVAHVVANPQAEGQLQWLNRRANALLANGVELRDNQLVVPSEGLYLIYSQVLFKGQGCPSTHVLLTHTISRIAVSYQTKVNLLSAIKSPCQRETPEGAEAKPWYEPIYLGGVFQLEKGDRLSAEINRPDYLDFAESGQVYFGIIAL

IC50	SMILES
< 100 nM	[2H]C([2H])([2H])N1C(=O)c2cccc(OC(F)F)c2[C@H]2C[C@@H]1c1nc3ccc(C#CC(=O)NC(C)C)cc3n12 [Example 95, 3-((7R,14R)-1-(difluoromethoxy)-6-(methyl-d3)-5-oxo-5,6,7,14-tetrahydro-7,14-methanobenzo[f]benzo[4,5]imidazo[1,2-a][1,4]diazocin-11-yl)-N-isopropylpropiolamide]
< 100 nM	[2H]C([2H])([2H])N1C(=O)c2cccc(OC(F)F)c2[C@H]2C[C@@H]1c1nc3ccc(C#CC(O)CC(F)(F)F)cc3n12 (stereo partly drawn) [Example 219, (7R,14R)-1-(difluoromethoxy)-6-(methyl-d3)-11-(5,5,5-trifluoro-3-hydroxypent-1-yn-1-yl)-6,7-dihydro-7,14-methanobenzo[f]benzo[4,5]imidazo[1,2-a][1,4]diazocin-5(14H)-one]
100 to 1000 nM	[2H]C([2H])([2H])N1C(=O)c2cccc(OC(F)F)c2[C@H]2C[C@@H]1c1nc3ccc(C#CC4CCCCO4)cc3n12 (stereo partly drawn) [Example 49, (7R,14R)-1-(difluoromethoxy)-6-(methyl-d3)-11-((tetrahydro-2H-pyran-2-yl)ethynyl)-6,7-dihydro-7,14-methanobenzo[f]benzo[4,5]imidazo[1,2-a][1,4]diazocin-5(14H)-one]
10000 to 30000 nM	[2H]C([2H])([2H])N1C(=O)c2cccc(OC(F)F)c2[C@H]2C[C@@H]1c1nc3ccc(C#C[C@@H](C)NCC)cc3n12 [Example 54, (7R,14R)-1-(difluoromethoxy)-11-((R)-3-(ethylamino)but-1-yn-1-yl)-6-(methyl-d3)-6,7-dihydro-7,14-methanobenzo[f]benzo[4,5]imidazo[1,2-a][1,4]diazocin-5(14H)-one]
< 100 nM	[2H]C([2H])([2H])N1C(=O)c2cccc(OC(F)F)c2[C@H]2C[C@@H]1c1nc3ccc(C#Cc4ccc(P(C)(C)=O)s4)cc3n12 [Example 107, (7R,14R)-1-(difluoromethoxy)-11-((5-(dimethylphosphoryl)thiophen-2-yl)ethynyl)-6-(methyl-d3)-6,7-dihydro-7,14-methanobenzo[f]benzo[4,5]imidazo[1,2-a][1,4]diazocin-5(14H)-one]
< 100 nM	[2H]C([2H])([2H])N1C(=O)c2cccc(OC(F)F)c2[C@H]2C[C@@H]1c1nc3ccc(C#CC4(O)CN(C5COC5)C4)cc3n12 [Example 250, (7R,14R)-1-(difluoromethoxy)-11-((3-hydroxy-1-(oxetan-3-yl)azetidin-3-yl)ethynyl)-6-(methyl-d3)-6,7-dihydro-7,14-methanobenzo[f]benzo[4,5]imidazo[1,2-a][1,4]diazocin-5(14H)-one]
10000 to 30000 nM	[2H]C([2H])([2H])N1C(=O)c2cccc(OC(F)F)c2[C@H]2C[C@@H]1c1nc3ccc(C#CC4(C)CCN(C(C)=O)CC4)cc3n12 [Example 180, (7R,14R)-11-((1-acetyl-4-methylpiperidin-4-yl)ethynyl)-1-(difluoromethoxy)-6-(methyl-d3)-6,7-dihydro-7,14-methanobenzo[f]benzo[4,5]imidazo[1,2-a][1,4]diazocin-5(14H)-one]
10000 to 30000 nM	[2H]C([2H])([2H])N1C(=O)c2cccc(OC(F)F)c2[C@H]2C[C@@H]1c1nc3ccc(C#CC(O)CC)cc3n12 (single isomer, unassigned) [Example 208, (7R,14R)-1-(difluoromethoxy)-11-((R or S)-3-hydroxypent-1-yn-1-yl)-6-(methyl-d3)-6,7-dihydro-7,14-methanobenzo[f]benzo[4,5]imidazo[1,2-a][1,4]diazocin-5(14H)-one]
< 100 nM	[2H]C([2H])([2H])N1C(=O)c2cccc(OC(F)F)c2[C@H]2C[C@@H]1c1nc3ccc(C#CCCCCO)cc3n12 [Example 92, (7R,14R)-1-(difluoromethoxy)-11-(6-hydroxyhex-1-yn-1-yl)-6-(methyl-d3)-6,7-dihydro-7,14-methanobenzo[f]benzo[4,5]imidazo[1,2-a][1,4]diazocin-5(14H)-one]
< 100 nM	[2H]C([2H])([2H])N1C(=O)c2cccc(OC(F)F)c2[C@H]2C[C@@H]1c1nc3ccc(C#CCN4CC[C@H](F)C4)cc3n12 [Example 235, (7R,14R)-1-(difluoromethoxy)-11-(3-((S)-3-fluoropyrrolidin-1-yl)prop-1-yn-1-yl)-6-(methyl-d3)-6,7-dihydro-7,14-methanobenzo[f]benzo[4,5]imidazo[1,2-a][1,4]diazocin-5(14H)-one]
< 100 nM	[2H]C([2H])([2H])N1C(=O)c2cccc(OC(F)F)c2[C@H]2C[C@@H]1c1nc3ccc(C#CCCOC)cc3n12 [Example 77, (7R,14R)-1-(difluoromethoxy)-11-(4-methoxybut-1-yn-1-yl)-6-(methyl-d3)-6,7-dihydro-7,14-methanobenzo[f]benzo[4,5]imidazo[1,2-a][1,4]diazocin-5(14H)-one]
100 to 1000 nM	[2H]C([2H])([2H])N1C(=O)c2cccc(OC(F)F)c2[C@H]2C[C@@H]1c1nc3ccc(C#CC(O)CC(C)(C)O)cc3n12 (single isomer, unassigned) [Example 221, (7R,14R)-1-(difluoromethoxy)-11-((S or R)-3,5-dihydroxy-5-methylhex-1-yn-1-yl)-6-(methyl-d3)-6,7-dihydro-7,14-methanobenzo[f]benzo[4,5]imidazo[1,2-a][1,4]diazocin-5(14H)-one]
100 to 1000 nM	[2H]C([2H])([2H])N1C(=O)c2cccc(OC(F)F)c2[C@H]2C[C@@H]1c1nc3ccc(C#CCCN)cc3n12 [Example 123, (7R,14R)-11-(4-aminobut-1-yn-1-yl)-1-(difluoromethoxy)-6-(methyl-d3)-6,7-dihydro-7,14-methanobenzo[f]benzo[4,5]imidazo[1,2-a][1,4]diazocin-5(14H)-one]
< 100 nM	[2H]C([2H])([2H])N1C(=O)c2cccc(OC(F)F)c2[C@H]2C[C@@H]1c1nc3ccc(C#CCC(C)O)cc3n12 (single isomer, unassigned) [Example 139, (7R,14R)-1-(difluoromethoxy)-11-((R or S)-4-hydroxypent-1-yn-1-yl)-6-(methyl-d3)-6,7-dihydro-7,14-methanobenzo[f]benzo[4,5]imidazo[1,2-a][1,4]diazocin-5(14H)-one]
100 to 1000 nM	[2H]C([2H])([2H])N1C(=O)c2cccc(OC(F)F)c2[C@H]2C[C@@H]1c1nc3ccc(C#CC4(C(F)F)CC4)cc3n12 [Example 188, (7R,14R)-1-(difluoromethoxy)-11-((1-(difluoromethyl)cyclopropyl)ethynyl)-6-(methyl-d3)-6,7-dihydro-7,14-methanobenzo[f]benzo[4,5]imidazo[1,2-a][1,4]diazocin-5(14H)-one]

Same assay, conditions: IC50 value, HEK Blue TNFα reporter cells; TNF-α 100 μg/ml; 24 hrs at 37° C.; inhibition of secreted alkaline phosphatase

IC50	SMILES
< 100 nM	[2H]C([2H])([2H])N1C(=O)c2cccc(OC(F)F)c2[C@H]2C[C@@H]1c1nc3ccc(C#CC(=O)OC(C)C)cc3n12 [Example 38, isopropyl 3-((7R,14R)-1-(difluoromethoxy)-6-(methyl-d3)-5-oxo-5,6,7,14-tetrahydro-7,14-methanobenzo[f]benzo[4,5]imidazo[1,2-a][1,4]diazocin-11-yl)propiolate]
< 100 nM	[2H]C([2H])([2H])N1C(=O)c2cccc(OC(F)F)c2[C@H]2C[C@@H]1c1nc3ccc(C#CCC)cc3n12 [Example 84, (7R,14R)-11-(but-1-yn-1-yl)-1-(difluoromethoxy)-6-(methyl-d3)-6,7-dihydro-7,14-methanobenzo[f]benzo[4,5]imidazo[1,2-a][1,4]diazocin-5(14H)-one]
